In US8133506B2, “Drug delivery systems comprising weakly basic drugs and organic acids” (Aptalis Pharmatech, Inc., priority 2008, dated 2012):
Values after ≈ are worked out from the molar mass of the structure shown. Structures can show the parent of a compound that is named as a salt. Where two headings read alike, the source gives them in different places.

Tests used:
[1] = pH-dependent solubility in aqueous buffer
[2] = Solubility in organic acid buffers (fumaric, aspartic, glutamic acid)
physchem [3] = assay: physchem
[4] = cited from earlier work
[5] = cited from earlier work; remark: listed apart in the source
physchem [6] = assay: physchem; remark: listed apart in the source
[7] = pH 6.8, aqueous buffer, solubility

**Q.** For `O=C1CN=C(c2ccccc2Cl)c2cc([N+](=O)[O-])ccc2N1` [Clonazepam], which solubility ([1]; pH 2.2, aqueous buffer) is on record?
**A.** Its solubility is 11.4 µg/mL (≈ 36.1 µM).

**Q.** What about the solubility ([1]; pH 2.8, aqueous buffer) of the same compound?
**A.** Its solubility is 10.2 µg/mL (≈ 32.3 µM).

**Q.** What about the solubility ([1]; pH 3.2, aqueous buffer) of the same compound?
**A.** The solubility was 9.6 µg/mL (≈ 30.4 µM).

**Q.** And the solubility ([1]; pH 3.8, aqueous buffer)?
**A.** Its solubility is 9.2 µg/mL (≈ 29.1 µM).

**Q.** What about the solubility ([1]; pH 4.2, aqueous buffer) of the same compound?
**A.** Its solubility is 9.1 µg/mL (≈ 28.8 µM).

**Q.** What about the solubility ([1]; pH 4.8, aqueous buffer) of the same compound?
**A.** The solubility was 8.6 µg/mL (≈ 27.2 µM).

**Q.** What about the solubility ([1]; pH 5.4, aqueous buffer) of the same compound?
**A.** Its solubility is 8.4 µg/mL (≈ 26.6 µM).

**Q.** And the solubility ([1]; pH 6.2, aqueous buffer)?
**A.** The solubility was 8 µg/mL (≈ 25.3 µM).

**Q.** What about the solubility ([1]; physiological pHs) of the same compound?
**A.** The solubility was “practically insoluble”.

**Q.** And the solubility ([2]; buffer at pH 2.3, higher concentration of fumaric acid)?
**A.** The solubility was “about 11.6 μg/mL”.

**Q.** And the solubility ([2]; buffer at pH 6.8, lower concentration of fumaric acid)?
**A.** The solubility was about 6.9 µg/mL (≈ 21.9 µM).

**Q.** And the solubility ([2]; pH 2.3, aqueous buffer)?
**A.** Its solubility is 11.6 µg/mL (≈ 36.7 µM).

**Q.** And the solubility ([2]; pH 2.8, aqueous buffer)?
**A.** Its solubility is 10.3 µg/mL (≈ 32.6 µM).

**Q.** And the solubility ([2]; pH 3.2, aqueous buffer)?
**A.** The solubility was 9.6 µg/mL (≈ 30.4 µM).

**Q.** What about the solubility ([2]; pH 3.7, aqueous buffer) of the same compound?
**A.** Its solubility is 9.8 µg/mL (≈ 31 µM).

**Q.** What about the solubility ([2]; pH 5.5, aqueous buffer) of the same compound?
**A.** Its solubility is 290 µg/mL (≈ 919 µM).

**Q.** With `COc1cc(C(C)=O)ccc1OCCCN1CCC(c2noc3cc(F)ccc23)CC1` [Iloperidone] as the compound, how does the solubility (physchem [3]; pH 1.2, simulated gastric fluid, Solubility of Iloperidone in Aqueous Buffer) read?
**A.** Its solubility is 3900 µg/mL (≈ 9140 µM).

**Q.** And the solubility (physchem [3]; pH 3.01, aqueous buffer, Solubility of Iloperidone in Aqueous Buffer)?
**A.** Its solubility is 1440 µg/mL (≈ 3370 µM).

**Q.** And the solubility (physchem [3]; pH 3.06, aqueous buffer, Solubility of Iloperidone in Aqueous Buffer)?
**A.** Its solubility is 917 µg/mL (≈ 2150 µM).

**Q.** And the solubility (physchem [3]; pH 4.08, aqueous buffer, Solubility of Iloperidone in Aqueous Buffer)?
**A.** The solubility was 681 µg/mL (≈ 1600 µM).

**Q.** And the solubility (physchem [3]; pH 4.46, aqueous buffer, Solubility of Iloperidone in Aqueous Buffer)?
**A.** The solubility was 586 µg/mL (≈ 1370 µM).

**Q.** What about the solubility (physchem [3]; pH 5.09, aqueous buffer, Solubility of Iloperidone in Aqueous Buffer) of the same compound?
**A.** Its solubility is 341 µg/mL (≈ 800 µM).

**Q.** What about the solubility (physchem [3]; pH 6.11, aqueous buffer, Solubility of Iloperidone in Aqueous Buffer) of the same compound?
**A.** The solubility was 117 µg/mL (≈ 274 µM).

**Q.** What about the solubility (physchem [3]; [7]) of the same compound?
**A.** The solubility was about 30 µg/mL (≈ 70.3 µM).

**Q.** What about the solubility (physchem [3]; pH 7.02, aqueous buffer, Solubility of Iloperidone in Aqueous Buffer) of the same compound?
**A.** Its solubility is 11 µg/mL (≈ 25.8 µM).

**Q.** And the solubility (physchem [3]; simulated gastric fluid, solubility)?
**A.** Its solubility is about 3000 µg/mL (≈ 7030 µM).

**Q.** Which solubility ([4]; low pH gastric fluids) does the source give for `Cc1nccn1CC1CCc2c(c3ccccc3n2C)C1=O` (stereo not drawn) [Ondansetron HCl, ondansetron hydrochloride] here?
**A.** The solubility was “freely soluble”.

**Q.** What about the solubility ([4]; pH >6) of the same compound?
**A.** Its solubility is “practically insoluble”.

**Q.** What about the elimination half-life ([5]; average) of the same compound?
**A.** Its elimination half-life is “approximately 3.8±1 hrs”.

**Q.** And the “absorption from the gastrointestinal tract” value ([5]; in vivo)?
**A.** The value was “well absorbed”.

**Q.** What about the solubility (physchem [3]; pH 2.2, aqueous buffer, Solubility of Ondansetron HCl in Aqueous Buffer) of the same compound?
**A.** The solubility was 23300 µg/mL.

**Q.** And the solubility (physchem [3]; pH 3.2, aqueous buffer, Solubility of Ondansetron HCl in Aqueous Buffer)?
**A.** Its solubility is 25700 µg/mL.

**Q.** What about the solubility (physchem [3]; pH 4.2, aqueous buffer, Solubility of Ondansetron HCl in Aqueous Buffer) of the same compound?
**A.** The solubility was 10900 µg/mL.

**Q.** And the solubility (physchem [3]; pH 5, aqueous buffer, Solubility of Ondansetron HCl in Aqueous Buffer)?
**A.** The solubility was 3600 µg/mL.

**Q.** And the solubility (physchem [3]; pH 5.6, aqueous buffer, Solubility of Ondansetron HCl in Aqueous Buffer)?
**A.** The solubility was 1700 µg/mL.

**Q.** What about the solubility (physchem [3]; pH 6.2, aqueous buffer, Solubility of Ondansetron HCl in Aqueous Buffer) of the same compound?
**A.** The solubility was 400 µg/mL.

**Q.** What about the solubility (physchem [3]; pH 6.8, aqueous buffer, Solubility of Ondansetron HCl in Aqueous Buffer) of the same compound?
**A.** The solubility was 36 µg/mL.

**Q.** What about the solubility (physchem [3]; [7]) of the same compound?
**A.** The solubility was under 50 µg/mL.

**Q.** What about the solubility (physchem [3]; pH 7, aqueous buffer, Solubility of Ondansetron HCl in Aqueous Buffer) of the same compound?
**A.** Its solubility is 25 µg/mL.

**Q.** What about the solubility (physchem [6]; pH 2.01, aqueous buffer) of the same compound?
**A.** The solubility was 26900 µg/mL.

**Q.** What about the solubility (physchem [6]; pH 2.14, aqueous buffer) of the same compound?
**A.** The solubility was 27000 µg/mL.

**Q.** And the solubility (physchem [6]; pH 2.4, aqueous buffer)?
**A.** Its solubility is 26100 µg/mL.

**Q.** And the solubility (physchem [6]; pH 2.75, aqueous buffer)?
**A.** The solubility was 26200 µg/mL.

**Q.** What about the solubility (physchem [6]; pH 3.49, aqueous buffer) of the same compound?
**A.** The solubility was 26000 µg/mL.

**Q.** What about the solubility (physchem [6]; pH 4.05, aqueous buffer) of the same compound?
**A.** The solubility was 26100 µg/mL.
